Assay results as given in patent publication US11249070B2, “Anti-cancer drug assessment method” (TOPPAN PRINTING CO., LTD., priority 2016, dated 2022).

Assays:
HCT116 = assay: CNT with 5-FU with or without bevacizumab, 2D, spheroid, 3D (Example 5); type: cell-based, human; details: bevacizumab 2 μg per well in the combination, 72 hours
[1] = test system: human lung adenocarcinoma cell line A549; assay: CNT with 5-FU with or without bevacizumab, lung stromal cells NHLF/HMVEC-L, flow cytometer (Example 10); type: cell-based; details: 5-FU 100 μM, bevacizumab 2 μg per well in the combination, 72 hours
Procedure: (§1) Thereafter, 400 μL of Fixation/Permilization solution (554722, produced by BD Bioscience) was added for fixation at 4° C. for 30 minutes, and the liquid component was removed. Then, 400 μL of Perm/Wash buffer attached to the kit was added, and centrifugation was performed at room temperature at 1120×g for 5 minutes. Thereafter, a primary antibody Monoclonal Mouse Anti-human Cytokeratin 7 (M7018, produced by DAKO) diluted with 5% FBS-containing PBS was added and allowed to react at 4° C. for 30 minutes. Then, the liquid component was removed, and washing was performed twice using Perm/Wash buffer attached to the kit. A secondary antibody Goat anti-Mouse IgG1 Cross-Adsorbed Secondary Antibody, Alexa Fluor 546 (A-11030, produced by Thermo Fischer Scientific) diluted with 5% FBS-containing PBS was added and allowed to react at 4° C. for 30 minutes. Thereafter, the liquid component was removed, washing was performed twice using Perm/Wash buffer attached to the kit, and the resultant was resuspended in 350 μL of 5% FBS-containing PBS.
(§2) The number of cells emitting fluorescence in the suspension after fixation and staining was counted as viable cancer cells. The cell count was performed using a flow cytometer (produced by Sony).

HT29 = assay: CNT with 5-FU with or without bevacizumab, 2D, spheroid, 3D (Example 5); type: cell-based, human; details: bevacizumab 2 μg per well in the combination, 72 hours
From the text: Moreover, for comparison, in place of the above cell structures, structures were produced by culturing cancer cells so as to form a single layer in a general culture container (2D method), and spheroids were produced by spheroid culture of a mixture of 2×10^6 NHDF, 3×10^4 HUVEC, and 2×10^4 cancer cells (spheroid method).

[2] = test system: human lung adenocarcinoma cell line A549; assay: CNT with 5-FU with or without bevacizumab, NHDF/HUVEC cell structure, flow cytometer (Example 11); type: cell-based; details: 3D (NHDF, HUVEC), bevacizumab 2 μg per well in the combination, 72 hours
Procedure: as §1, §2

O=c1[nH]cc(F)c(=O)[nH]1 [5-FU]
CNT (%) Average value (HCT116; 2D, 5-FU 100 μM): 38.9% | CNT (%) Average value (HCT116; 2D, 5-FU 1 mM): 15.3% | CNT (%) Average value (HCT116; 3D, 5-FU 100 μM): 86.9% | CNT (%) Average value (HCT116; Spheroid, 5-FU 100 μM): 62.3% | CNT (%) Average value (HCT116; Spheroid, 5-FU 1 mM): 27.7% | CNT (%) Average value ([1]; 2D): 37.7% | CNT (%) Average value ([1]; 3D (NHLF, HMVEC-L)): 72.9% | CNT (%) Average value (HT29; 2D, 5-FU 100 μM): 54.2% | CNT (%) Average value (HT29; 2D, 5-FU 1 mM): 25.8% | CNT (%) Average value (HT29; 3D, 5-FU 1 mM): 75.0% | CNT (%) Average value (HT29; Spheroid, 5-FU 100 μM): 57.5% | CNT (%) Average value (HT29; Spheroid, 5-FU 1 mM): 44.8% | CNT (%) Average value ([2]; 5-FU 100 μM): 28.8% | CNT (%) Average value ([2]; 5-FU 1 mM): 7.7%
